The numbers were not newly measured in paper PMC4008261, “Rewiring of regenerated axons by combining treadmill training with semaphorin3A inhibition” (Molecular Brain, 2014), which cites them from elsewhere.

For one series, the system named is SCT adult rats. Also noted: method as in PMID 17099709. To be noted: adult rats after total spinal cord transection (SCT), osmotic mini-pump; cited from earlier work.
A further series deals with semaphorin3A. More on the design: method as in PMID 17099709. To be noted: in vitro and in vivo; cited from earlier work.

On to `CC(=O)c1c(C)c(/C(O)=C2\COc3cc(O)c(O)c(C(=O)O)c3C2=O)cc2c(=O)c3c(C(=O)O)c(O)c(O)cc3oc12` [SM-216289, xanthofulvin], for which, in the series on SCT adult rats, the “axonal regeneration and motor function recovery” value was “led to axonal regeneration and motor function recovery”. Further, the “inhibition of semaphorin3A signaling” value in the series with semaphorin3A is “selectively inhibits semaphorin3A signaling both in vitro and in vivo”.
